Source: publication PMC8913295, “Cryo-EM structure of hexameric yeast Lon protease (PIM1) highlights the importance of conserved structural elements” (The Journal of Biological Chemistry, 2022)

T1: PIM1 (yeast Lon protease) (Saccharomyces cerevisiae, UniProt P36775)
T1 construct: 109 kDa; hexamer; residues 529-1133 resolved
T1 sequence (P36775 182-1133): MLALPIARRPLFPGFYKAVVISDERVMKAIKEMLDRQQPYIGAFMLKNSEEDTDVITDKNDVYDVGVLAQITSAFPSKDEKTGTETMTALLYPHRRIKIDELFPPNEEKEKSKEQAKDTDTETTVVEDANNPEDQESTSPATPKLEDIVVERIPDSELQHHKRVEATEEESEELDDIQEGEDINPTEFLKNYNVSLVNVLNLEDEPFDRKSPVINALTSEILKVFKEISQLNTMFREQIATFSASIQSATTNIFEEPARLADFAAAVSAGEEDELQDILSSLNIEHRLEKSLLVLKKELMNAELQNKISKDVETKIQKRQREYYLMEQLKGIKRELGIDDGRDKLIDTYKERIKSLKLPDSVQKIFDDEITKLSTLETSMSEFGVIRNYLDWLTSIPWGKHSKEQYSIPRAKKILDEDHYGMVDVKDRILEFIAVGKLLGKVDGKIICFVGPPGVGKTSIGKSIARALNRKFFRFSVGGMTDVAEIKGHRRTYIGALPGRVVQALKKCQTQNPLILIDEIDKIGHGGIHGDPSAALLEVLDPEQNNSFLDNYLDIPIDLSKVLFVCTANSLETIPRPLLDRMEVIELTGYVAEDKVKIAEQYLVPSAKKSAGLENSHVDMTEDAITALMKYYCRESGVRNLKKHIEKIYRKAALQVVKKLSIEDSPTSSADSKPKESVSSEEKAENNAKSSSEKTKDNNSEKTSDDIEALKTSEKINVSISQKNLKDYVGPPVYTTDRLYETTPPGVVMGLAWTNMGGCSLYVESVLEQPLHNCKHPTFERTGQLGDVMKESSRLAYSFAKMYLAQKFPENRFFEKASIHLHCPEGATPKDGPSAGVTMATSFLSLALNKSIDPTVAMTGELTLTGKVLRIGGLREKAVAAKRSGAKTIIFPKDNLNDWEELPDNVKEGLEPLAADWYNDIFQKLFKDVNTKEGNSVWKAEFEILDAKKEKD

B1: mature WT S. cerevisiae PIM1 lacking the mitochondrial targeting sequence (yeast Lon protease) (enzyme, UniProt P36775 182-1133, looked up)
chain: T1 sequence (P36775 182-1133)
notes: residues 529-1133 modelled in the structure; also called WT PIM1; source: E. coli BL21 (DE3) Codon Plus RIPL, purified (Ni-NTA, Superose 6 SEC)

Legend:
[1] = target: T1, PIM1 (yeast Lon protease); test: cryo-EM structure ([…] Å); format: binding; conditions: two seam subunits (ADP1-2) without gamma-phosphate density; no ADP added, 1 mM ATPγS in sample
[2] = target: the molecule itself; test: cryo-EM structure; WT PIM1 (3 mg/ml) after size-exclusion chromatography, incubated with 1 mM ATPγS on ice for 20 min, plunge-frozen; reconstruction at ~3.2 Å

Row | Molecule | cryo-EM structure (3.2 Å) [1] | stoichiometry N [2]
1 | Nc1ncnc2c1ncn2[C@@H]1O[C@H](COP(=O)(O)OP(=O)(O)O)[C@@H](O)[C@H]1O [ADP] | do not contain density for a γ-phosphate and are named ADP1 and ADP2 | –
2 | B1 | – | 6
